The values that follow come from article PMC2481421, “Gene expression response in target organ and whole blood varies as a function of target organ injury phenotype” (Genome Biology, 2008).

Data set [1] can be described thus: In-life observations: body weight, gross findings before and at necropsy. The format is in vivo, Male Fischer 344/N rats. Particulars: individual animals. On the procedure:
Doses were determined with pilot experiments. […] Serum was collected for clinical chemistry.

The next data set has as its system liver. Briefly: Liver histopathology (H&E sections of left liver lobe, severity graded) after a single dose.
[2] abbreviates: 15 mg/kg, gavage, corn oil, 6 hours.
The mark [3] stands for this setting: 15 mg/kg, gavage, corn oil, 24 hours, listed as 1, 4-Dichlorobenzene.
Where [4] appears, read: 15 mg/kg, gavage, corn oil, 48 hours.
[5] abbreviates: 150 mg/kg, gavage, corn oil, 6 hours.
Setting [6] is: 150 mg/kg, gavage, corn oil, 24 hours, listed as 1, 4-Dichlorobenzene.
Setting [7] is: 150 mg/kg, gavage, corn oil, 48 hours.
Setting [8] is: 1500 mg/kg, gavage, corn oil, 24 hours, listed as 1, 4-Dichlorobenzene.
The mark [9] stands for this setting: 1500 mg/kg, gavage, corn oil, 48 hours.
The mark [10] stands for this setting: medium dose, 6 hour, six animals.

Several values for one entry are separate records, joined by “and”; a condition that tells them apart may be missing. Identical values can stand only once. Entries after “also recorded” stand apart in the source; their conditions may differ.

Procedure for liver: The animals were acclimated for 14 days and observed for absence of disease.
Doses were determined with pilot experiments. For each chemical, doses that elicited a sub-toxic ('low'), a moderately toxic ('medium') or a overtly toxic ('high') response 24 hours after treatment were selected. […] For each compound, control animal groups were treated with vehicle alone. All animals were fasted for 12-18 hours prior to exposure. Groups of four to six animals were dosed between 8:30 and 9:30 a.m.; thereafter, feed was provided ad libitum. After 6, 24 or 48 hours of treatment, animals were anesthetized by isoflurane anesthesia. Whole blood was collected via retro-orbital plexus for hematology and gene expression analysis. Serum was collected for clinical chemistry. The animals were euthanized while under anesthesia by cervical dislocation and necropsied within 4 minutes of sacrifice. The left liver lobe was promptly removed and two defined cross sections were placed in 10% neutral buffered formalin for subsequent histopathology.
The cross sections that were fixed by immersion in 10% neutral buffered formalin (see 'In-life studies' section above) were transferred to histology grade alcohol for 18-24 hours after necropsy. Tissues were then processed, embedded in paraffin, sectioned at 5 microns, and stained with hematoxylin and eosin. A pathologist completed the initial microscopic evaluation of each liver sample for a given compound. […] An independent pathology quality assessment review was performed by a second pathologist on the initial histopathological findings.

With `Clc1ccc(Cl)cc1` [1,4-Dichlorobenzene], the “Clin/Ob Prior to Necropsy” value in data set [1] (setting [2]) was “Normal”; in data set [1] (15 mg/kg, gavage, corn oil, 24 hours) it was “Normal”; in data set [1] (setting [4]), “Normal”; in data set [1] (setting [5]) it was “Normal”; in data set [1] (150 mg/kg, gavage, corn oil, 24 hours), “Normal”; in data set [1] (setting [7]), “Normal”. Also, the “Clin/Ob Prior to Necropsy” value in data set [1] (1500 mg/kg, gavage, corn oil, 6 hours) is “Normal”; in data set [1] (1500 mg/kg, gavage, corn oil, 24 hours), “Normal”; in data set [1] (setting [9]) it was “Normal”. Also, the “Gross Findings” value is on record as “No Gross Findings” in data set [1] (setting [2]); “Liver median lobe with dark area 3x5 mm; also recorded: No Gross Findings” in data set [1] (setting [3]); “No Gross Findings” in data set [1] (setting [4]); “No Gross Findings” in data set [1] (setting [5]); “Liver median lobe mottled; Bladder calculi; also recorded: No Gross Findings” in data set [1] (setting [6]); “No Gross Findings” in data set [1] (setting [7]). Further, the “Gross Findings” value is “Liver left and median lobes mottled; also recorded: No Gross Findings” in data set [1] (1500 mg/kg, gavage, corn oil, 6 hours, listed as 1, 4-Dichlorobenzene); “No Gross Findings; also recorded: Liver median lobe mottled on dorsal side” in data set [1] (setting [8]); “No Gross Findings” in data set [1] (setting [9]). The “Final Body Wt.” value in data set [1] (setting [3]) was 232.30 g and 225.40 g and 254.10 g and 277.50 g; in data set [1] (15 mg/kg, gavage, corn oil, 48 hours, listed as 1, 4-Dichlorobenzene), 239.30 g and 240.50 g and 258.30 g and 262.70 g; in data set [1] (setting [6]), 243.60 g and 238.40 g and 164.30 g and 262.50 g; in data set [1] (150 mg/kg, gavage, corn oil, 48 hours, listed as 1, 4-Dichlorobenzene), 234.10 g and 237.30 g and 264.20 g and 251.10 g; in data set [1] (setting [8]), 242.10 g and 248.00 g and 261.40 g and 259.70 g; in data set [1] (1500 mg/kg, gavage, corn oil, 48 hours, listed as 1, 4-Dichlorobenzene), 237.50 g and 238.20 g and 259.90 g and 253.70 g.

As for `c1cc[n+]2c(c1)-c1cccc[n+]1CC2` [Diquat], in the data set on liver (high dose, 48 hour), the “extent of hepatocellular necrosis, amount of inflammatory cell infiltrates and/or indications of hepatocellular repair (mitosis) across animals” value is on record as “variability”. In the data set with liver (setting [10]), the “animals with minimal levels of hepatocellular necrosis” value is given as “one”, the “animals with no apparent histopathological observations” value was “Three of the six” and the “animals with noted levels of glycogen depletion” value is recorded as “two”. Besides, in the data set on liver (rat, single administration), the “Primary site of livery injury” value is listed as “Mid-zonal to centrilobular”.

In the case of `c1cc[n+]2c(c1)-c1cccc[n+]1CC2` [Diquat Dibromide], the “Clin/Ob Prior to Necropsy” value in data set [1] (5 mg/kg, I.P., PBS, 6 hours) was “normal”; in data set [1] (5 mg/kg, I.P., PBS, 24 hours) it was “normal”; in data set [1] (5 mg/kg, I.P., PBS, 48 hours), “normal; also recorded: Piloerection”; in data set [1] (10 mg/kg, I.P., PBS, 6 hours) it was “normal”; in data set [1] (10 mg/kg, I.P., PBS, 24 hours), “normal”; in data set [1] (10 mg/kg, I.P., PBS, 48 hours), “normal”. Moreover, the “Clin/Ob Prior to Necropsy” value is “normal” in data set [1] (20 mg/kg, I.P., PBS, 6 hours); “normal; also recorded: Piloerection” in data set [1] (20 mg/kg, I.P., PBS, 24 hours); “normal; also recorded: Piloerection” in data set [1] (20 mg/kg, I.P., PBS, 48 hours); “normal; also recorded: Piloerection; also recorded: Comatose” in data set [1] (25 mg/kg, I.P., PBS, 6 hours); “Piloerection; also recorded: normal; also recorded: Ungroomed Appearance” in data set [1] (25 mg/kg, I.P., PBS, 24 hours); “normal; also recorded: Ungroomed Appearance; also recorded: Piloerection” in data set [1] (25 mg/kg, I.P., PBS, 48 hours). Besides, the “Gross Findings” value is “No Gross Findings; also recorded: Liver: median lobe dark area ventral surface 3x5mm; also recorded: Liver: left lobe accentuated centrilobular pattern” in data set [1] (5 mg/kg, I.P., PBS, 6 hours); “No Gross Findings; also recorded: Liver: median lobe HDN; also recorded: Liver: left lobe mottled, median lobe mottled” in data set [1] (5 mg/kg, I.P., PBS, 24 hours); “No Gross Findings; also recorded: Liver: left lobe mottled, median lobe mottled” in data set [1] (5 mg/kg, I.P., PBS, 48 hours); “Liver: left lobe mottled, median lobe pale patcity area 3x5mm; also recorded: Liver: left lobe dark focus 1x1mm, median lobe mottled; also recorded: No Gross Findings” in data set [1] (10 mg/kg, I.P., PBS, 6 hours); “No Gross Findings; also recorded: Liver: left lobe mottled, median lobe mottled; also recorded: Liver: median lobe dorsal surface mottled; also recorded: Liver: median lobe HDN” in data set [1] (10 mg/kg, I.P., PBS, 24 hours); “No Gross Findings; also recorded: Liver: left lobe small, median lobe small; also recorded: Liver: left lobe mottled, median lobe mottled” in data set [1] (10 mg/kg, I.P., PBS, 48 hours). Further, the “Gross Findings” value is “Liver: left lobe mottled dark edge, median lobe mottled; also recorded: No Gross Findings” in data set [1] (20 mg/kg, I.P., PBS, 6 hours); “Liver: left lobe mottled/pale, median lobe mottled/pale; also recorded: No Gross Findings; also recorded: Liver: median lobe dorsal surface mottled; also recorded: Liver: left lobe mottled/pale/slightly enlarged, median lobe mottled/pale/ slightly enlarged” in data set [1] (20 mg/kg, I.P., PBS, 24 hours); “No Gross Findings; also recorded: Liver: left lobe mottled/pale, median lobe pale; also recorded: Liver: left lobe mottled/pale, median lobe mottled/pale” in data set [1] (20 mg/kg, I.P., PBS, 48 hours); “No Gross Findings; also recorded: Liver: left lobe mottled dark, median lobe mottled dark” in data set [1] (25 mg/kg, I.P., PBS, 6 hours); “No Gross Findings; also recorded: Liver: left lobe pale, one focal tan area on dorsal side 3x3mm, tan focal area on ventral side 7x5mm; median lobe pale and mottled; also recorded: Liver: left lobe dark edge; also recorded: Liver: left lobe mottled/pale/ rough surface minimal, median lobe mottled/pale/ rough surface minimal” in data set [1] (25 mg/kg, I.P., PBS, 24 hours); “Liver: left lobe pale/small, median lobe pale/small; also recorded: Liver: left lobe pale/mottled/ rough surface slight, median lobe pale/mottled/ rough surface slight” in data set [1] (25 mg/kg, I.P., PBS, 48 hours). Besides, the “Final Body Wt.” value in data set [1] (5 mg/kg, I.P., PBS, 24 hours) is 211.10 g and 208.50 g and 245.30 g and 233.00 g and 258.10 g and 250.90 g; in data set [1] (5 mg/kg, I.P., PBS, 48 hours) it was 224.20 g and 218.20 g and 231.10 g and 225.90 g and 257.30 g and 249.20 g; in data set [1] (10 mg/kg, I.P., PBS, 24 hours), 206.10 g and 210.20 g and 242.10 g and 224.30 g and 236.70 g and 244.40 g; in data set [1] (10 mg/kg, I.P., PBS, 48 hours) it was 220.20 g and 230.20 g and 218.20 g and 217.30 g and 243.20 g and 249.30 g; in data set [1] (20 mg/kg, I.P., PBS, 24 hours), 207.30 g and 222.70 g and 236.30 g and 245.70 g and 242.80 g and 235.30 g; in data set [1] (20 mg/kg, I.P., PBS, 48 hours) it was 227.20 g and 217.30 g and 211.20 g and 231.70 g and 252.00 g and 265.20 g. Further, the “Final Body Wt.” value is 240.50 g and 211.50 g and 223.20 g and 243.30 g and 234.60 g and 233.90 g in data set [1] (25 mg/kg, I.P., PBS, 24 hours); 205.20 g and 208.20 g and 226.90 g and 212.10 g and 236.10 g and 244.10 g in data set [1] (25 mg/kg, I.P., PBS, 48 hours).
